Here are results for eight molecules from ChEMBL document CHEMBL5725790, “Compositions and methods for the production of pyrimidine and pyridine compounds with BTK inhibitory activity” (2017).

This assay deals with Tyrosine-protein kinase BTK (Homo sapiens, UniProt Q06187). The experiment in a line: Enzyme Assay: The following describes a microfluidic, off-chip mobility shift kinase assay used to measure inherent potency of compounds against BTK enzyme. Compounds described by embodiments of the present invention were assayed using this protocol and the data from the same is recorded in Table 2 within the column labeled: Time Dependent BTK Enzyme Assay IC50. […] Stopped reactions were monitored at −2 PSI, −3000 V/−700 V in a LabChip 3000 plate reader from Caliper Life Sciences, a PerkinElmer Company (Hopkinton, Mass.), and the activity was measured by off-chip mobility shift assay measuring the charge/mass difference between substrate and product resulting from peptide phosphorylation. IC50 and efficacy were determined by plotting log [Inhibitor] vs. % Activity in GeneData Screener (Basel, Switzerland). Compounds described by embodiments of the present invention were assayed using this protocol and the data from the same is recorded in Table 2 within the column labeled: Time Dependent […] BTK Enzyme Assay IC50.
Tyrosine-protein kinase BTK, sequence (Q06187 whole entry): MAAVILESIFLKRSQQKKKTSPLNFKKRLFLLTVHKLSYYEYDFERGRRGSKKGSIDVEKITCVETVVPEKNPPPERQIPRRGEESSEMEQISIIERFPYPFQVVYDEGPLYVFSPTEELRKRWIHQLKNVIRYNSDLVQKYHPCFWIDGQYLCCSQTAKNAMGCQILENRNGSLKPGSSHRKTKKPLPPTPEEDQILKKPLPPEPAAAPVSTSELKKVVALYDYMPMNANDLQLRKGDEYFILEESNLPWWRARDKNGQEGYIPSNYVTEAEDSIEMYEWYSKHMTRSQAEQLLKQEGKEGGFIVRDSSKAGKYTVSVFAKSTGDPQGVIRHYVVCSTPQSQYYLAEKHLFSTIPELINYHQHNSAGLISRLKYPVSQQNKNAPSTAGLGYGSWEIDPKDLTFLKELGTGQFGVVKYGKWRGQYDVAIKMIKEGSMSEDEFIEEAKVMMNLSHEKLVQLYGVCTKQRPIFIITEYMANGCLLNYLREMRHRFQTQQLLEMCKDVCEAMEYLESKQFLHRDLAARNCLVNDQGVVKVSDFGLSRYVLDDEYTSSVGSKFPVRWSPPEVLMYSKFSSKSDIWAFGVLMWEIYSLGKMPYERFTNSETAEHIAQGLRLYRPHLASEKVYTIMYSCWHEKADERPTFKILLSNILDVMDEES

For orientation: IC50 means the concentration needed to halve the response being measured. In the case of `C=CC(=O)Nc1cccc(Oc2ncnc(N)c2-c2cnn(Cc3cccc(S(C)(=O)=O)c3)c2)c1`, the IC50 was under 1000 nM.
In the case of `CCC(=O)Nc1cccc(Oc2ccnc(C(N)=O)c2-c2ccc(Oc3ccccc3)cc2)c1`, the IC50 was over 1000 nM.
Turning to `C=CC(=O)N1CC2(CC(Nc3ncnc(N)c3-c3cnn(Cc4ccncc4)c3)C2)C1`, the IC50 is over 1000 nM.
The same measure for `CCC(=O)Nc1cccc(Oc2ccncc2-c2ccc(Oc3ccccc3)cc2)c1`: over 1000 nM.
The same measure for `Nc1ncnc(NC2CC3(C2)CN(S(=O)(=O)CCCl)C3)c1-c1ccc(Oc2ccccc2)cc1`: under 100 nM; for `C=CC(=O)Nc1cncc(Oc2ncnc(N)c2-c2ccc(Oc3ccc(C#N)cc3)cc2)c1`: under 1000 nM; for `C=CC(=O)Nc1cccc(Oc2ncnc(N)c2-c2ccc(Oc3ccccc3)cc2)c1F`: under 100 nM.
Then `N#CC1(C(=O)Nc2cccc(-c3c(N)ncnc3Oc3ccc(Oc4ccccc4)cc3)c2)CC1`, with over 1000 nM.
